Source: the supplement of paper PMC4862054

Tests used:
Conditions in all cases: incubation time: 72 h
HCC1599 = experiment: drug sensitivity score (DSS), CellTox Green (DSS (AUC-based score)); higher = stronger drug effect (viability inhibition or cytotoxicity); extreme values may be limits of the assay
How it was run: (§1)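 After 72 h of incubation in 384-well plates with compound at 5 concentrations (10-fold steps, 10,000-fold range set per compound), breast cancer cell lines seeded in 20 µl suspension were read first for CellTox Green fluorescence at 485/520 nm. CellTiter-Glo luminescence was measured next, after 10 min at room temperature. Normalisation on each plate used 0.1 % DMSO and a positive kill control, and the drug sensitivity score was computed from the area under the fitted dose-response curve.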

CAL-85-1 [1] = experiment: as above
How it was run: as §1

HCC1143 [2] = experiment: as above
How it was run: as §1

HCC1937 [3] = experiment: as above
How it was run: as §1

MDA-MB-453 [4] = experiment: as above
How it was run: as §1

DU-4475 [5] = experiment: as above
How it was run: as §1

MDA-MB-468 [6] = experiment: as above
How it was run: as §1

Hs578T [7] = experiment: as above
How it was run: as §1

BT-549 = experiment: as above
How it was run: as §1

MCF-10A [8] = experiment: as above
How it was run: as §1

BT-474 = experiment: as above
How it was run: as §1

HDQ-P1 = experiment: as above
How it was run: as §1

MFM-223 = experiment: as above
How it was run: as §1

MDA-MB-231 [9] = experiment: as above
How it was run: as §1

CAL-51 = experiment: as above
How it was run: as §1

MDA-MB-436 = experiment: as above
How it was run: as §1

CAL-120 = experiment: drug sensitivity score (DSS), CellTiter-Glo (DSS (AUC-based score)); higher = stronger drug effect (viability inhibition or cytotoxicity); extreme values may be limits of the assay
How it was run: as §1

CAL-85-1 [10] = experiment: as above
How it was run: as §1

HCC1143 [11] = experiment: as above
How it was run: as §1

HCC1937 [12] = experiment: as above
How it was run: as §1

MDA-MB-453 [13] = experiment: as above
How it was run: as §1

DU-4475 [14] = experiment: as above
How it was run: as §1

MDA-MB-468 [15] = experiment: as above
How it was run: as §1

Hs578T [16] = experiment: as above
How it was run: as §1

MCF-10A [17] = experiment: as above
How it was run: as §1

SK-BR-3 = experiment: as above
How it was run: as §1

MDA-MB-231 [18] = experiment: as above
How it was run: as §1

| Compound | drug sensitivity score (HCC1599) | drug sensitivity score (CAL-85-1 [1]) | drug sensitivity score (HCC1143 [2]) | drug sensitivity score (HCC1937 [3]) | drug sensitivity score (MDA-MB-453 [4]) | drug sensitivity score (DU-4475 [5]) | drug sensitivity score (MDA-MB-468 [6]) | drug sensitivity score (Hs578T [7]) | drug sensitivity score (BT-549) | drug sensitivity score (MCF-10A [8]) | drug sensitivity score (BT-474) | drug sensitivity score (HDQ-P1) | drug sensitivity score (MFM-223) | drug sensitivity score (MDA-MB-231 [9]) | drug sensitivity score (CAL-51) | drug sensitivity score (MDA-MB-436) | drug sensitivity score (CAL-120) | drug sensitivity score (CAL-85-1 [10]) | drug sensitivity score (HCC1143 [11]) | drug sensitivity score (HCC1937 [12]) | drug sensitivity score (MDA-MB-453 [13]) | drug sensitivity score (DU-4475 [14]) | drug sensitivity score (MDA-MB-468 [15]) | drug sensitivity score (Hs578T [16]) | drug sensitivity score (MCF-10A [17]) | drug sensitivity score (SK-BR-3) | drug sensitivity score (MDA-MB-231 [18]) |
| --- | --- | --- | --- | --- | --- | --- | --- | --- | --- | --- | --- | --- | --- | --- | --- | --- | --- | --- | --- | --- | --- | --- | --- | --- | --- | --- | --- |
| O=C(CCCCCCC(=O)Nc1ccc([C@H]2O[C@@H](CSc3nc(-c4ccccc4)c(-c4ccccc4)o3)C[C@@H](c3ccc(CO)cc3)O2)cc1)NO [Tubacin] | 0 | 5.67 | 2.07 | 10.6 | 1.38 | 0 | 0 | 0.503 | 0 | 0 | 1.77 | 0 | 0 | 7.97 | 3.54 | 0 | 4.36 | 7.14 | 3.15 | 3.76 | 8.42 | 1.66 | 8.6 | 0 | 0 | 1.97 | 6.83 |
| CN[C@@H]1C[C@H]2O[C@@](C)([C@@H]1OC)n1c3ccccc3c3c4c(c5c6ccccc6n2c5c31)C(=O)N[C@H]4O [UCN-01] | 0 | 20.2 | 8.74 | 0 | 1.04 | 4.48 | 0 | 17.7 | 9.46 | 21.6 | 7.59 | 14.7 | 6.67 | 19 | 17 | 0 | 24.9 | 22.6 | 19.7 | 18.8 | 17.3 | 19.9 | 23.7 | 27.5 | 27.8 | 24 | 28.1 |
| Clc1ccc(Nc2nnc(Cc3ccncc3)c3ccccc23)cc1 [Vatalanib] | 0 | 0 | 0 | 0 | 0 | 0 | 0 | 0 | 0 | 2.74 | 0 | 0 | 0 | 0 | 0 | 0 | 0 | 0 | 0 | 0 | 0 | 0 | 0 | 0 | 0 | 0 | 0 |
| CCC1=C[C@@H]2CN(C1)Cc1c([nH]c3ccccc13)[C@@](C(=O)OC)(c1cc3c(cc1OC)N(C)[C@H]1[C@@](O)(C(=O)OC)[C@H](OC(C)=O)[C@]4(CC)C=CCN5CC[C@]31[C@@H]54)C2 [Vinorelbine] | 2.9 | 11.7 | 0 | 0 | 0 | 0 | 5.08 | 23.3 | 4.21 | 23.7 | 10 | 0 | 12.7 | 18.1 | 24.9 | 3.27 | 13.2 | 19.8 | 15.6 | 8.42 | 15.6 | 6.47 | 24.8 | 19.8 | 10.2 | 37.5 | 13.7 |
| Oc1nc(-c2ccc(C(F)(F)F)cc2)nc2c1CSCC2 [XAV-939] | 0 | 0 | 0 | 0 | 0 | 0 | 0 | 3.23 | 0 | 0 | 0 | 3.77 | 0 | 0 | 0 | 0 | 0 | 0 | 0 | 0 | 0.956 | 0 | 0.9 | 0 | 0 | 0 | 2.7 |
